Reference: PMC6510822, “Identification of anticancer OATP2B1 substrates by an in vitro triple-fluorescence-based cytotoxicity screen” (Archives of Toxicology, 2019)
Where two headings read alike, the source gives them in different places. Marks after values point to notes of the source that are not given here.

Columns and labels:
[1] = system: A431 cells; experiment: PrestoBlue-based cytotoxicity assay, A431; assay type: cell-based, human; details: PrestoBlue viability assay
Description: (§1) All experiments were performed using a robotic pipetting workstation (Hamilton Robotics STAR Let). Cells were seeded at a final cell density of 1875 cells per well in 384-well plates in the triple co-culture (625 cells from each lines) and at 2500 cells per well in the A431 control and A431-2B1 co-culture (1250 cells from both) systems. Co-cultured cells were incubated for 24 h at 37 °C and 5% CO2 under humidified atmosphere prior to the addition of drugs. […] Data were exported to a custom-made program for determining growth inhibition curves for each cell line. In confirmatory screens, compounds were tested with the same method in a nine-point dose response format. For validation, compounds were confirmed in cytotoxicity assays using the PrestoBlue cell viability reagent (ThermoFisher), according to the manufacturer’s instructions.

[2] = system: A431B1 cells; experiment: PrestoBlue-based cytotoxicity assay, A431B1; assay type: cell-based, human; details: PrestoBlue viability assay
Description: as §1

[3] = system: A431G2 cells; experiment: PrestoBlue-based cytotoxicity assay, A431G2; assay type: cell-based, human; details: PrestoBlue viability assay
Description: as §1

[4] = system: Mes-Sa cells; experiment: PrestoBlue-based cytotoxicity assay, Mes-Sa; assay type: cell-based, human; details: PrestoBlue viability assay
Description: as §1

[5] = system: Mes-Sa/Dx5 cells; experiment: PrestoBlue-based cytotoxicity assay, Mes-Sa/DX5; assay type: cell-based, human; details: PrestoBlue viability assay
Description: as §1

[6] = system: Mes-Sa-B1 cells; experiment: PrestoBlue-based cytotoxicity assay, Mes-Sa-B1; assay type: cell-based, human; details: PrestoBlue viability assay
Description: as §1

[7] = system: Mes-Sa-B1 cells (Pgp overexpressing); experiment: Fluorescence-based cytotoxicity assay, Mes-Sa-B1 mOr; details: for IC50: fluorescent protein based assay; for RR (Mes-Sa-B1): resistance ratio = IC50 Mes-Sa-B1 / IC50 parental Mes-Sa, triple co-culture screen
[8] = system: Mes-Sa/Dx5 cells; experiment: Fluorescence-based cytotoxicity assay, Mes-Sa/Dx5 eGFP; details: for IC50: fluorescent protein based assay; for RR (Dx5): resistance ratio = IC50 Mes-Sa/Dx5 / IC50 parental Mes-Sa, triple co-culture screen
[9] = system: A431 cells; experiment: Fluorescence-based cytotoxicity assay, parental A431 eGFP
[10] = system: Mes-Sa cells; experiment: Fluorescence-based cytotoxicity assay, parental Mes-Sa mCh; details: fluorescent protein based assay
[11] = system: A431-B1 cells (ABCB1/P-glycoprotein expressing); experiment: Fluorescence-based cytotoxicity assay, ABCB1-expressing A431-B1 mCh; details: for IC50: fluorescent protein based assay; for RR (A431B1): resistance ratio = IC50 A431B1 / IC50 parental A431, triple co-culture screen
[12] = system: A431-G2 cells (ABCG2 expressing); experiment: Fluorescence-based cytotoxicity assay, ABCG2-expressing A431-G2 mOr; details: triple co-culture, result in words
[13] = system: OATP2B1; experiment: in vitro; details: human
[14] = system: A431-2B1 cells (OATP2B1 expressing); experiment: Fluorescence-based cytotoxicity assay, OATP2B1-expressing A431-2B1 mCh
[15] = target: T1, OATP2B1 (Homo sapiens, UniProt O94956); experiment: Inhibition of OATP2B1-mediated Cascade Blue uptake (microplate-based uptake assay, A431-2B1 cells)
T1 sequence (O94956 1-709): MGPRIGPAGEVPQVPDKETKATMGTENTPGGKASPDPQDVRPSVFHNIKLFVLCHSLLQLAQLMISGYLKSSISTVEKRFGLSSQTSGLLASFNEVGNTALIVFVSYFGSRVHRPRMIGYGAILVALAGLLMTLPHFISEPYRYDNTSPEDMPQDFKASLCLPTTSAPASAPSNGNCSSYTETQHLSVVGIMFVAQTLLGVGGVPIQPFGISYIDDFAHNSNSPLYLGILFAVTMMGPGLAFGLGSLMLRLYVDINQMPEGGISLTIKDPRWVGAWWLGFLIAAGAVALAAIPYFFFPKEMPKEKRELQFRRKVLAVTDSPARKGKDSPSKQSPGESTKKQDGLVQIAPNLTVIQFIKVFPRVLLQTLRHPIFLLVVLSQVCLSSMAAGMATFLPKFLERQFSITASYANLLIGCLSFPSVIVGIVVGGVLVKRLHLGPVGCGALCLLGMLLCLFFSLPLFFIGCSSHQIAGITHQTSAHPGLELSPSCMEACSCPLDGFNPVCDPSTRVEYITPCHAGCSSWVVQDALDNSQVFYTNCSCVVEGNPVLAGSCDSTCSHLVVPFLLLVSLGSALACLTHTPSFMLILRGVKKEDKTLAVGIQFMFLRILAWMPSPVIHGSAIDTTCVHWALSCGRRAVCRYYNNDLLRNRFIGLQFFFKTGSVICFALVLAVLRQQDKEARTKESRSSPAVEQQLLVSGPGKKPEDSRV

[16] = system: Mes-Sa/Dx5 cells
[17] = system: OATP2B1; experiment: Fluorescence-based cytotoxicity assay, OATP2B1-expressing A431-2B1 mCh; details: human
[18] = system: ABCB1 (P-glycoprotein); experiment: Fluorescence-based cytotoxicity assay, ABCB1-expressing A431-B1 mCh; details: human
[19] = system: ABCG2; experiment: Fluorescence-based cytotoxicity assay, ABCG2-expressing A431-G2 mOr; details: human
[20] = Homo sapiens, A-431, read-out: IC50 (µM) A431 eGFP, co-culture
[21] = Homo sapiens, A-431, read-out: IC50 (µM) A431 eGFP, monoculture
[22] = IC50 A431 eGFP / IC50 A4312B1 mCh, co-culture
[23] = IC50 A431 eGFP / IC50 A4312B1 mCh
[24] = primary screen, co-culture, Fig. 4 inset
[25] = A431-2B1 mCherry cells (OATP2B1-expressing), monoculture

IC50 [15] [µM] | SMILES | IC50 [9, 20] [µM] | RR (Mes-Sa-B1) [7] | RR (Dx5) [8] | IC50 [9, 21] [µM] | RR (A431B1) [11] | SR, co-culture [14, 22] | SR, monoculture [14, 23] | SR (A431-2B1 vs parental A431), screening of DTP Oncology Set IV [14, 24] | IC50 at […] [17] [µM] | IC50 at […] [17, 25] [µM] | further results
 | Oc1c(CN2CCCCC2)ccc2cccnc12 [NSC57969] |  |  |  |  |  |  |  |  |  |  | IC50 [1]: 4.93 µM; IC50 [2]: 0.974 µM; IC50 [3]: 5.76 µM; IC50 [4]: 4.89 µM; IC50 [5]: 0.815 µM; IC50 [6]: 1.48 µM; IC50 ([7]; read-out: IC50 Mes-Sa-B1, monoculture, monoculture): 2.81 µM; IC50 ([7]; read-out: IC50 Mes-Sa-B1, triple co-culture, triple co-culture): 1.8 µM; IC50 ([8]; read-out: IC50 Mes-Sa/DX5, monoculture, monoculture): 0.951 µM; IC50 ([8]; read-out: IC50 Mes-Sa/DX5, triple co-culture, triple co-culture): 0.177 µM; IC50 ([9]; read-out: IC50 A431, monoculture, fluorescent protein based assay, monoculture): 5.13 µM; IC50 ([9]; read-out: IC50 A431, triple co-culture, fluorescent protein based assay, triple co-culture): 7.09 µM; IC50 ([10]; read-out: IC50 Mes-Sa, monoculture, monoculture): 5.08 µM; IC50 ([10]; read-out: IC50 Mes-Sa, triple co-culture, triple co-culture): 3.21 µM; IC50 ([11]; read-out: IC50 A431B1, monoculture, monoculture): 0.774 µM; IC50 ([11]; read-out: IC50 A431B1, triple co-culture, triple co-culture): 2.78 µM; Effect of ABCG2 expression on toxicity (A431-G2 vs parental A431) [12]: did not sensitize
 | CO[C@@]12[C@H](COC(N)=O)C3=C(C(=O)C(C)=C(N)C3=O)N1C[C@@H]1N[C@@H]12 [NSC-26980, Mitomycin] |  |  |  |  |  |  |  |  |  |  | SR (Mes-Sa/DX5) [16]: 4.407; SR (Mes-Sa-B1) [7]: 0.56
4.59 ± 0.4 | COc1cc([C@@H]2c3cc4c(cc3[C@@H](O[C@@H]3O[C@@H]5CO[C@@H](c6cccs6)O[C@H]5[C@H](O)[C@H]3O)[C@H]3COC(=O)[C@H]23)OCO4)cc(OC)c1O [NSC-122819, Teniposide] | 0.45 | 41.88 | 75.25 | 0.83 | 5.43 | 6.02^* | 6.1^** | 4.78 | 0.07 | 0.14 | 
1.88 ± 0.32 | COc1cc([C@@H]2c3cc4c(cc3[C@@H](O[C@@H]3O[C@@H]5CO[C@@H](C)O[C@H]5[C@H](O)[C@H]3O)[C@H]3COC(=O)[C@H]23)OCO4)cc(OC)c1O [NSC-141540, Etoposide] | 7.45 | 16.97 | > 61.73 | 6.42 | > 4.14 | 9.06^** | 3.2^* | 3.017 | 0.82 | 1.99 | IC50 ([1]; Homo sapiens, A-431): 1.19 µM; IC50 ([2]; Homo sapiens): 5.49 µM; IC50 ([3]; Homo sapiens): 3.43 µM; IC50 ([9]; Homo sapiens, A-431, read-out: IC50 A431, monoculture): 6.1 µM; IC50 ([9]; Homo sapiens, A-431, read-out: IC50 A431, triple co-culture): 1.69 µM; IC50 at […] [18]: 13.8 µM; IC50 at […] ([18]; A431-B1 mCherry cells (ABCB1-expressing), monoculture): 46.3 µM; IC50 at […] [19]: 4.05 µM; IC50 at […] ([19]; A431-G2 mOrange cells (ABCG2-expressing), monoculture): 12 µM
11.3 ± 0.38 | CC(=O)O[C@@]12CO[C@@H]1C[C@H](O)[C@@]1(C)C(=O)[C@H](O)C3=C(C)[C@@H](OC(=O)[C@H](O)[C@@H](NC(=O)OC(C)(C)C)c4ccccc4)C[C@@](O)([C@@H](OC(=O)c4ccccc4)[C@H]21)C3(C)C [NSC-628503, Docetaxel] | 0.08 | 275.00 | 295.00 | 0.00097 | 26.38 |  | 4.35^* | 4.00 | 0.002 | 0.00022 | 
124 ± 6.42 | CCCCCOC(=O)Nc1nc(=O)n([C@@H]2O[C@H](C)[C@@H](O)[C@H]2O)cc1F [NSC-712807, Capecitabine] | 205 |  |  | 391 |  | 4.62^** | 3.04^** | 3.41 | 44.5 | 129 | 

SMILES | IC50 [15] [µM] | IC50 [9, 20] [µM] | RR (Mes-Sa-B1) [7] | RR (Dx5) [8] | IC50 [9, 21] [µM] | RR (A431B1) [11] | SR, co-culture [14, 22] | SR, monoculture [14, 23] | SR (A431-2B1 vs parental A431), screening of DTP Oncology Set IV [14, 24] | IC50 at […] [17] [µM] | IC50 at […] [17, 25] [µM] | further results
S=P(N1CC1)(N1CC1)N1CC1 [NSC-6396, Thioplex] | 574 ± 283 | 57.6 |  |  |  |  |  |  |  |  |  | IC50 [13]: 18.7 µM; SR (Mes-Sa/DX5) [8]: 12.56; SR (A431-2B1 vs parental A431), screening of DTP Oncology Set IV [14]: 3.48; SR, co-culture [14]: 3.08^*
